Columns and labels:
sco1Δ cells = test: Respiratory growth rescue of sco1Δ yeast; assay type: cell-based, Saccharomyces cerevisiae; conditions: non-fermentable media, 37° C.
Procedure: (§1) Yeast Strains and Culture Conditions. The authenticity of yeast strains was confirmed by PCR as well as by replica plating on dropout plates. Yeast cells were cultured in standard YP growth media including YPD (1% yeast extract, 2% peptone and 2% glucose), YPGal (2% galactose), YPGE (3% glycerol+1% ethanol), or synthetic media (SC glucose). For qualitative growth measurement, 10-fold serial dilutions of overnight cultures were spotted on YPD or YPGE plates and incubated at 30° C. and 37° C. for the indicated period. Growth in liquid media was measured spectrophotometrically at 600 nm.
(§2) ES Rescues Many Different Yeast Mutants with Impaired Copper Metabolism. To test the specificity of ES mediated rescue, a number of yeast mutants of genes required for maintaining cellular and mitochondrial copper homeostasis were shortlisted. Genes were prioritized based on their evolutionary conservation, presence of pathogenic mutations in humans, and/or the existence of a related mouse phenotype (Table 3, shown below). […] Most of the yeast mutants were rescued with ES supplementation, albeit to different degrees, reflecting their distinct roles in cellular and mitochondrial copper homeostasis.

[1] = test system: Ctrl^−/− mouse embryonic fibroblasts (MEFs); test: COX1 levels in Ctr1 knockout mouse embryonic fibroblasts; assay type: cell-based; conditions: increasing ES doses
Procedure: (§3) Mammalian Cell Culture. The human control MCH46 and SCO2 patient fibroblasts as well as the rat H9c2 control and Ctr1^−/− cardiomyocytes were cultured in high glucose Dulbecco's modified Eagle's medium (DMEM) supplemented with 10% fetal bovine serum (Sigma) and 1 mM sodium pyruvate (Life Technologies). The mouse embryonic fibroblasts were cultured in DMEM 10% FBS, 1 mM sodium pyruvate, 1× minimum essential medium non-essential amino acids (MEM NEAA; Life Technologies 11140), 50 μg/mL uridine, and 1× Pen Strep Glutamine (Life Technologies 10378). All cell lines were cultured under 5% CO2 at 37° C. and were treated with indicated concentrations of ES for 3-6 days before harvesting. Whole cell protein was extracted in lysis buffer (BP-115, Boston BioProducts) supplemented with protease inhibitor cocktail (Roche Diagnostics) and the protein concentrations were determined by BCA assay (Thermo Scientific).
(§4) Immunoblotting and In-gel Activities. Sodium dodecyl sulfate polyacrylamide gel electrophoresis (SDS-PAGE) and Blue Native PAGE (BN-PAGE) were performed to separate denatured and native protein complexes, respectively. For SDS-PAGE, mitochondrial lysate ([…]) was separated on NuPAGE 4-12% Bis-Tris gels (Life Technologies, Carlsbad, CA). For BN-PAGE, yeast mitochondria were solubilized in buffer containing 1% digitonin (Life Technologies) by incubating for 15 min at 4° C. […]

yeast atx1Δ = test: Respiratory growth rescue of atx1Δ yeast; assay type: cell-based, Saccharomyces cerevisiae; conditions: non-fermentable media, 37° C.
Procedure: as §1
as §2, with “homeostasis. […]” for “homeostasis.”

coa6Δpic2Δ cells = test: Respiratory growth rescue of coa6Δpic2Δ yeast; assay type: cell-based, Saccharomyces cerevisiae; conditions: ES supplementation
Procedure: To further corroborate that ES increases mitochondrial copper levels by actively transporting extracellular copper into the cells, copper availability in the extracellular compartment was decreased by co-treatment of ES with a known copper chelator, bathocuproine disulfonate (BCS). […] To determine whether ES is able to bypass a mitochondrial copper transporter, Pic2, ES supplementation in pic2Δ and coa6Δpic2Δ cells was performed.

[2] = test system: immortalized control (MCH46) and SCO2 patient fibroblasts, primary human skin fibroblasts (MW28); test: Cell viability of human fibroblasts (total cellular ATP, Cell-Titre GLo); assay type: cell-based
Procedure: FIGS. 5A and 5B illustrate cell viability of immortalized and primary human fibroblasts cell lines treated with increasing concentrations of elesclomol. […] Cell viability was measured by quantifying total cellular ATP levels by Cell-Titre GLo assay (Promega). Data are expressed as mean±SD (n=3).
ES Supplementation Rescues Levels of CcO Subunits in Mammalian Cell Lines with Genetic Defects in Copper Metabolism. To expand upon the findings in yeast and to test the efficacy of ES in mammalian cell culture models of copper deficiency, a Ctr1 knockout rat H9c2 cardiomyocyte cell line was constructed. […] As expected, the loss of Ctr1 led to a ˜4-fold decrease in the levels of intracellular copper (FIG. 4A) and a concomitant reduction in the levels of the CcO subunitCOX1 and superoxide dismutase, SOD1 (FIG. 4B). This validated Ctr1^−/− cell line was used to test the efficacy of ES in rescuing COX1, a copper-containing subunit of CcO and SOD1, superoxide dismutase, another copper-containing enzyme SOD1. […] Finally, the efficacy of ES in rescuing CcO defects in SCO2 patient fibroblasts that were previously shown to have a COX2 deficiency was tested.

SCO2 patient fibroblasts = test: Steady state COX2 levels in SCO2 patient fibroblasts; assay type: cell-based, human; conditions: dose and time dependent
Procedure: as §3, §4

[3] = test system: Coa6 knockdown zebrafish embryos
Procedure: Batches of 50 fertilized embryos injected with either translation blocking or mismatch control morpholinos were treated with or without 100 nM ES at 3 hpf, before making observations at the indicated time points (n % 30 for each time point and treatment).
Zebrafish Experiments. […] Wild type AB strain and Ctr1 heterozygous zebrafish were maintained and crossed using standard methods. Embryos were staged and raised in Egg Water at 28.5° C. For drug treatments, embryos from Ctr1 heterozygous crosses were incubated in 10 nM ES diluted in Egg Water beginning at 3 hours post-fertilization (hpf). For imaging live embryos at 48 hpf, representative embryos of each sample were anesthetized in Tricaine and imaging was performed on an Olympus SZX12 stereomicroscope. […] Morpholino-based experiments were performed.

CN(NC(=O)CC(=O)NN(C)C(=S)c1ccccc1)C(=S)c1ccccc1 [ES, elesclomol]
rescue of respiratory growth (sco1Δ cells): failed to rescue
COX1 levels [1]: dose dependent rescue
rescue of respiratory growth (yeast atx1Δ): rescue
rescue of respiratory growth (coa6Δpic2Δ cells): did rescue
toxicity in immortalized cell lines compared to primary cultures [2]: much more pronounced toxicity in immortalized cell lines
concentration at which ES toxicity occurs relative to the dose that rescued COX2 levels ([2]; immortalized fibroblasts, 36 hours): 20 ×
steady state levels of COX2 (SCO2 patient fibroblasts): partially rescue
pericardial edema ([3]; 100 nM ES): prevented pericardial edema
rescue of morphological phenotype score ([3]; 100 nM ES at 3 hpf, scored at 24, 48, 72, 96 hpf): rescue with 100 nM ES treatment was observed as early as 48 hpf
heart rate of Coa6 knockdown embryos ([3]; 100 nM ES, 72 and 96 hpf): significantly increased the heart rate

— US20240285555A1, “COMPOSITIONS FOR THE TREATMENT OF COPPER DEFICIENCY AND METHODS OF USE” (priority 2018, published 2024)
